# Assay results reported in PMC5011342, “A high throughput drug screening assay to identify compounds that promote oligodendrocyte differentiation using acutely dissociated and purified oligodendrocyte precursor cells” (BMC Research Notes, 2016).
# Where two headings read alike, the source gives them in different places.
# Legend:
# [1] = tested on: expanded OPCs; test: cells; conditions: for 0.1 µM (% DMSO) / 1 µM (% DMSO) / 10 µM (% DMSO): alamarBlue viability of expanded OPCs, relative to DMSO control; for 0.1 µM (% DMSO): compound at 0.1 µM; for 1 µM (% DMSO): compound at 1 µM; for 10 µM (% DMSO): compound at 10 µM; for viability at 0.1 µM / viability at 1 µM / viability at 10 µM: Rattus norvegicus, 72 h
# Method: Having established a consistent assay for measuring OL differentiation in vitro, the next step was to utilize this assay to assess the ability of a wide array of compounds to promote OL differentiation. Prior to library screening, we first established the maximum non-toxic dose of each compound in the library. […] Therefore, we added each compound in the NIH clinical collection (NCC) library to OPCs at 10, 1, and 0.1 µM concentrations. Three days later, we assessed viability of the treated cells by measuring AlamarBlue fluorescence, a measure of cell viability (see “Methods” section). […] Appropriately, we established three sets of screening concentrations for library compounds: non-toxic compounds were tested at 10 and 2 µM, slightly toxic compounds (only toxic at 10 µM) were tested at 2 and 0.4 µM, and very toxic compounds were tested at 0.4 and 0.08 µM.
# OPCs were expanded in vitro by seeding into PDL-coated tissue culture flasks at 1000–2000 cells/cm^2 in differentiation media supplemented with 10 ng/ml PDGF-AA. Proliferating OPCs were fed every 2–3 days and supplemented with 2–3× concentration of PDGF as needed to prevent OPC differentiation. After 6–7 days of proliferation, OPCs were harvested by trypsinization, plated into PDL-coated 96-well Falcon plates and centrifuged at 200×g to facilitate cell attachment, survival, and even distribution of cells. Expanded OPCs were seeded in differentiation media at 10,000 cells/well and incubated for 2 h at 37 °C, 10 % CO2 prior to addition of compounds. The NCC library was diluted and added to cells at 10, 1, and 0.1 µM; each concentration was tested in quadruplicate. As a positive control for the induction of toxicity, 5 ng/ml tunicamycin was added to 8 wells in each plate. Three days later, a 1:10 dilution of alamarBlue® (AB) was added to each well and cells were incubated 4 h at 37 °C, 10 % CO2. AB fluorescence was measured using a PerkinElmer Victor II fluorescence microplate reader (PerkinElmer, Waltham, MA) with 560 nm excitation/590 nm emission filters. For library screening, the highest concentration of each compound was adjusted to a minimally toxic concentration based on this toxicity data. Compounds were additionally tested at a second concentration that was 1/5th of the top concentration. The final concentration of DMSO in each well was 0.1 %.
# [2] = tested on: acutely dissociated and purified rat OPCs; test: Acute OL differentiation assay (MBP expression/cell, immunofluorescent image quantification); format: cell-based; conditions: Rattus norvegicus
# Method: In order to identify compounds with the potential to promote OL differentiation in vivo and thereby enhance remyelination, we first wanted to establish an in vitro assay system that would closely mimic conditions in vivo. To do this, we started by using OPCs acutely isolated from postnatal day 6–7 (P6–7) rat brains by O4 immunopanning. […] OPCs were plated directly onto a biological substrate (PDL/laminin) in 96-well view plates at moderate density to allow for sufficient room to expand processes during differentiation. We plated cells in serum-free medium lacking OPC mitogens (no PDGF or FGF) to allow a basal level of OL differentiation to commence, and as a positive control added thyroid hormone (T3, 40 ng/ml) to accelerate differentiation (Fig. 1, flow scheme).
# Fig. 1 Flow scheme of the acute OL differentiation assay. a Purified oligodendrocyte precursor cells (OPCs) were cultured from P7 rat cortex and plated into PDL/laminin pre-coated 96-well plates. b One hour later test compounds were added. c OPC cultures with compound were maintained in culture for an additional 4 days. d On the 5th day with compound, cells were fixed and immunostained with anti-MBP antibodies and DAPI. e Images were acquired with automated fluorescence microscopy and scored phenotypically for OL differentiation (see “Methods” section)
# To quantify the extent of OL differentiation occurring in treatment conditions, we measured the overall amount of MBP expression/cell (see “Methods” section). Figure 2a depicts the mask created over MBP staining under which the MBP expression was quantified. […]
# All animal work was carried out in strict accordance with the recommendations in the Guide for the Care and Use of Laboratory Animals of the National Institutes of Health. The protocol was approved by the Institutional Use and Care and Use Committee at the Molecular Medicine Research Institute (Sunnyvale, CA). Animals used for OPC isolation in these studies were euthanized by decapitation. OPCs from brains of P6-P7 Sprague–Dawley rat pups (Charles River, Wilmington, MA, USA) were enriched by immunopanning as previously described (Dugas et al. 2006). Briefly, single cell suspensions were obtained from papain-digested neonatal brains and depleted of mature glial cells by successive panning with RAN-2- and GalC-coated plates, followed by enrichment for OPCs using O4-coated plates. OPCs were plated in differentiation media (DMEM, 100 U/ml Penicillin/100 µg/ml streptomycin, 2 mM L-glutamine, 1 mM Na pyruvate, 5 µg/ml insulin, 5 µg/ml N-acetyl-L-cysteine, 1× trace elements B,10 ng/ml d-Biotin, 100 µg/ml BSA, 100 µg/ml apo-transferrin, 16 µg/ml putrescine, 60 ng/ml progesterone, 40 ng/ml sodium selenite 5 ng/ml forskolin, 10 ng/ml CNTF, 1 ng/ml NT-3).
# Acutely enriched OPCs were plated in differentiation media at 5000 cells/well into PDL/laminin coated 96-well view plates and centrifuged at 200×g to facilitate cell attachment, survival, and even distribution of OPCs. OPCs were pre-incubated for 1–2 h at 37 °C in 10 % CO2, followed by the addition of test compounds in quadruplicate. Controls were added in eight replicate wells, negative control = 0.1 % DMSO; positive control = 40 ng/ml T3. The day of OPC plating was considered DIV0. On DIV4, cells were fixed, immunostained for myelin basic protein (MBP) expression, imaged and quantified as described below.
# [3] = test compound at 2 uM, MBP expression relative to quetiapine, NCC library screen, sheet "All OLga data", read-out: 2 uM (% Quet)
# [4] = test compound at 10 uM, MBP expression relative to quetiapine, NCC library screen, sheet "All OLga data", read-out: 10 uM (% Quet)
# [5] = read-out: 0.1 µM (% DMSO), alamarBlue viability of expanded OPCs, compound at 0.1 µM, sheet All Tox data
# [6] = read-out: 1 µM (% DMSO), alamarBlue viability of expanded OPCs, compound at 1 µM, sheet All Tox data
# [7] = read-out: 10 µM (% DMSO), alamarBlue viability of expanded OPCs, compound at 10 µM, sheet All Tox data
# [8] = 2 uM test compound, relative to quetiapine, sheet "All OLga data", read-out: OL differentiation, 2 uM (% Quet)
# [9] = 10 uM test compound, relative to quetiapine, sheet "All OLga data", read-out: OL differentiation, 10 uM (% Quet)
# [10] = read-out: 0.1 µM (% DMSO), alamarBlue viability, NCC library compound at 0.1 µM, sheet "All Tox data"
# [11] = read-out: 1 µM (% DMSO), alamarBlue viability, NCC library compound at 1 µM, sheet "All Tox data"
# [12] = read-out: 10 µM (% DMSO), alamarBlue viability, NCC library compound at 10 µM, sheet "All Tox data"
# [13] = test compound at 2 uM, NCC library screen, sheet "All OLga data", relative to quetiapine, read-out: 2 uM (% Quet)
# [14] = test compound at 10 uM, NCC library screen, sheet "All OLga data", relative to quetiapine, read-out: 10 uM (% Quet)
Compound,0.1 µM (% DMSO) [1] [% DMSO],1 µM (% DMSO) [1] [% DMSO],10 µM (% DMSO) [1] [% DMSO],"viability at 0.1 µM [1, 5] [%]","viability at 1 µM [1, 6] [%]","viability at 10 µM [1, 7] [%]","activation at 2 µM [2, 8] [%]","activation at 10 µM [2, 9] [%]","activation at 2 µM [2, 13] [%]","activation at 10 µM [2, 14] [%]",further results
COc1cc(C)c(/C=C/C(C)=C/C=C/C(C)=C/C(=O)O)c(C)c1C [Acitretin],101.2,141.3,148.0,,,,,,,,"activation at 2 µM [2, 3]: 68.7%; activation at 10 µM [2, 4]: 51.4%"
CC(=O)Nc1ccc(CC(=O)O)cc1 [Actarit],,,,96.4,104,102,4.4,-11.3,,,
Nc1nc2c(ncn2COCCO)c(=O)[nH]1 [Acyclovir],98.2,90.8,91.7,,,,,,,,"activation at 2 µM [2, 3]: 21.2%; activation at 10 µM [2, 4]: 4.3%"
Nc1ncnc2c1ncn2[C@@H]1O[C@H](CO)[C@@H](O)[C@H]1O [Adenosine],,,,,,,,,3.3,-9.9,"viability at 0.1 µM [1, 10]: 88.5%; viability at 1 µM [1, 11]: 81.3%; viability at 10 µM [1, 12]: 80.5%"
CCCSc1ccc2nc(NC(=O)OC)[nH]c2c1 [Albendazole],55.7,57.4,58.6,,,,,,,,activation at 0.4 µM ([2]; read-out: 0.4 uM (% Quet)): -27.1%; activation at 2 µM ([2]; read-out: 2 uM (% Quet)): -112%
COc1cc2nc(N(C)CCCNC(=O)C3CCCO3)nc(N)c2cc1OC (centres unmarked) [Alfuzosin],,,,90.1,89.6,86.6,-11.1,-32.5,,,
Oc1ncnc2[nH]ncc12 [Allopurinol],83.9,89.7,89.6,,,,,,-5.6,-5.5,
Cc1[nH]cnc1CN1CCc2c(c3ccccc3n2C)C1=O [Alosetron],,,,106,91.2,96.3,-24,-21.2,,,
Cc1nnc2n1-c1ccc(Cl)cc1C(c1ccccc1)=NC2 [Alprazolam],,,,102,115,139,-12.2,-116,,,
CCCCC[C@H](O)/C=C/[C@H]1[C@H](O)CC(=O)[C@@H]1CCCCCCC(=O)O [Alprostadil],,,,,,,,,-7.2,-67.6,"viability at 0.1 µM [1, 10]: 84.4%; viability at 1 µM [1, 11]: 85.6%; viability at 10 µM [1, 12]: 81.6%"
O=C(c1ccc(F)cc1)C1CCN(CCn2c(=S)[nH]c3ccccc3c2=O)CC1 [Altanserin],,,,,,,-4,-10,,,"viability at 0.1 µM [1, 10]: 107%; viability at 1 µM [1, 11]: 94.1%; viability at 10 µM [1, 12]: 56%"
CN(C)c1nc(N(C)C)nc(N(C)C)n1 [Altretamine],,,,,,,,,-1.1,-13.9,"viability at 0.1 µM [1, 10]: 94.2%; viability at 1 µM [1, 11]: 87.4%; viability at 10 µM [1, 12]: 85%"
NC12CC3CC(CC(C3)C1)C2 [Amantadine],89.6,86.9,77.6,,,,,,-21.4,-19.9,
CC(=O)OCC(=O)[C@@]12OC3(CCCC3)O[C@@H]1C[C@H]1[C@@H]3CCC4=CC(=O)C=C[C@]4(C)[C@@]3(F)[C@@H](O)C[C@@]12C [Amcinonide],113.8,123.7,114.6,,,,,,,,"activation at 2 µM [2, 3]: 18.1%; activation at 10 µM [2, 4]: -10.2%"
CC1(C)S[C@@H]2[C@H](/N=C/N3CCCCCC3)C(=O)N2[C@H]1C(=O)O [Amdinocillin],,,,89.7,98.8,102,-15.6,5.8,,,
N=C(N)NC(=O)c1nc(Cl)c(N)nc1N [Amiloride],,,,82.2,83.7,90.8,-5.9,-0.4,,,
